Measurements published in patent US20240122956A1, “Application of Naringin Combined with Rapamycin in Preparation of Medications for Treating Hyperlipidemia” (AIR FORCE MEDICAL UNIVERSITY, priority 2023, published 2024).

Experiments:
[1] = test system: oxidized high-density lipoprotein (oxHDL); experiment: drug screening among 200 natural products for neutralizing oxLp: affinity and surface charge, oxHDL; assay type: binding
Text: (§1) This unregulated process of lipid accumulation and inflammatory reaction, induced by oxLp-NLRP3 complexes, accelerates the progression of hyperlipidemia. Considering the role of oxLp-NLRP3 complexes in the progression of hyperlipidemia, a drug screening technique was employed to search for potential compounds among 200 natural products with the aim of neutralizing oxLp. […] Therefore, naringin was selected for further investigation.

oxHDL-NLRP3 complexes = experiment: formation of oxHDL-NLRP3 complexes in THP-1 cells (fluorescence imaging); assay type: cell-based; conditions: naringin 100 μM pre-treatment 1 hour, oxHDL 50 μg/mL 3 hours
Experimental: (§2) Cell Culture and Treatment: THP-1 cells (from American Type Culture Collection, Manassas, Virginia) were cultured in RPMI 1640. They were pre-treated with naringin (Sigma, 91842; 100 μM) for 1 hour, followed by cultivation in serum-free medium containing oxLDL and oxHDL (50 μg/mL) for 3 hours. The culture condition was maintained at 37° C. and with 5% CO2.

[2] = test system: hyperlipidemia model Ldr1−/− (C57BL/6J) mice; experiment: lipid accumulation / lesions in carotid arteries, aortic roots and liver of hyperlipidemic mice (Oil Red O); assay type: in vivo; conditions: high-fat diet 16 weeks, naringin 20 mg/kg daily intraperitoneal, RAPA 40 mg/kg in diet
Text: To evaluate the synergistic therapeutic effects of naringin and rapamycin on hyperlipidemia mice (FIG. 4), a hyperlipidemia model was established using Ldr1^−/− (C57BL/6J) mice. […] Subsequently, mouse serum, tissues of carotid arteries, liver, and aortic root were collected for analysis. Assessment of Lesions in Carotid Arteries, Aortic Roots, and Liver Tissues: Carotid arteries, hearts, and livers of mice were dissected, fixed overnight with 4% PFA, and carotid arteries were stained with Oil Red O after gently removing adherent (outer membrane) fat and flattening them from the carotid arteries. The stained aortas were placed on anti-fall-off slides, fully unfolded, and images were captured using a high-resolution camera. Hearts and livers were embedded in OCT tissue, and 7-10 μm thick continuous sections were collected. Staining was performed with Oil Red O and hematoxylin and eosin. Stained sections were analyzed using an optical microscope. ImageJ (version 2.10) was used for quantitative analysis of the images. Lesion areas were assessed according to the percentage of Oil Red 0-positive areas in the total sampled area.

THP-1 cells [3] = experiment: intracellular cholesterol accumulation in THP-1 cells; assay type: cell-based; conditions: naringin 100 μM pre-treatment 1 hour
Experimental: as §2
Measurement of Intracellular Cholesterol: Intracellular cholesterol was determined using a commercially available intracellular cholesterol assay kit according to the manufacturer's instructions.

oxLDL-NLRP3 complexes = experiment: formation of oxLDL-NLRP3 complexes in THP-1 cells (fluorescence imaging); assay type: cell-based; conditions: naringin 100 μM pre-treatment 1 hour, oxLDL 50 μg/mL 3 hours
Experimental: as §2

[4] = test system: oxidized low-density lipoprotein (oxLDL); experiment: drug screening among 200 natural products for neutralizing oxLp: affinity and surface charge, oxLDL; assay type: binding
Text: as §1

THP-1 cells [5] = experiment: IL-1β release in THP-1 cells; assay type: cell-based; conditions: naringin 100 μM pre-treatment 1 hour
Experimental: as §2
Measurement of IL-1β: IL-1β was measured using a commercially available IL-1β assay kit according to the manufacturer's instructions.

In the case of `C[C@@H]1O[C@@H](O[C@H]2[C@H](Oc3cc(O)c4c(c3)O[C@H](c3ccc(O)cc3)CC4=O)O[C@H](CO)[C@@H](O)[C@@H]2O)[C@H](O)[C@H](O)[C@H]1O` [naringin], the “neutralizing the negative charge on the surface of oxHDL” value [1] is reported as “capable of neutralizing the negative charge”, the “affinity for oxHDL” value ([1]; drug screening) is reported as “high affinity” and the “formation of complexes between oxHDL and NLRP3” value (oxHDL-NLRP3 complexes) is reported as “inhibited the formation of complexes”. The “lipid accumulation in the aortic roots” value [2] was “alleviated lipid accumulation”, the “lipid accumulation in the carotid arteries” value [2] was “alleviated lipid accumulation” and the “lipid accumulation in the livers” value [2] was “alleviated lipid accumulation”. The oxHDL-induced cholesterol accumulation (THP-1 cells [3]; oxHDL 50 μg/mL 3 hours) was “reduced”, the oxLDL-induced cholesterol accumulation (THP-1 cells [3]; oxLDL 50 μg/mL 3 hours) was “reduced” and the “formation of complexes between oxLDL and NLRP3” value (oxLDL-NLRP3 complexes) was “inhibited the formation of complexes”. The “neutralizing the negative charge on the surface of oxLDL” value [4] was “capable of neutralizing the negative charge”, the “affinity for oxLDL” value ([4]; drug screening) was “high affinity” and the “oxHDL-induced IL-1β release” value (THP-1 cells [5]; oxHDL 50 μg/mL 3 hours) was “reduced”. For the same molecule, the “oxLDL-induced IL-1β release” value (THP-1 cells [5]; oxLDL 50 μg/mL 3 hours) was “reduced”.
